Experiments:
[1] = biological target: T1, GST-huANT3 recombinantly produced in E. coli (membranes) (Homo sapiens, UniProt P12236); experiment: Saturation binding of [32P]ATP to E. coli membranes, huANT3-producing cells; conditions: for cpm bound by: huANT3-Producing Cells: 25 μg membrane protein, 2 hr room temperature
T1 construct: Gly-Ser-Pro-Gly-Ile-Leu-Met, where “Met” indicates the amino acid encoded by the translation initiation codon of huANT3; made in house; host or cells: E. coli (crude membrane preparation)
T1 sequence (P12236 1-298): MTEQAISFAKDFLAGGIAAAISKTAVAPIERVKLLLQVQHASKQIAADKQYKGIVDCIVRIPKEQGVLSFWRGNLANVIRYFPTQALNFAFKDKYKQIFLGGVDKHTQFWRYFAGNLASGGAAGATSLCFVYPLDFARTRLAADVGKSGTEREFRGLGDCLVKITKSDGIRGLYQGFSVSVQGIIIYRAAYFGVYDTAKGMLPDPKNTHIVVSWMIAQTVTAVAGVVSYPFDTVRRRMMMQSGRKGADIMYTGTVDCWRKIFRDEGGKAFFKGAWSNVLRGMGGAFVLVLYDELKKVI
Method: (§1) Following arabinose induction, transformed or sham transformed (vector only) E coli were collected by centrifugation at 2000 g for 10 min. The bacterial pellets were resuspended in MSB, to which lysozyme (100 μg/ml) was added. After 20 min at room temperature, the lysates were subjected to one freeze-thaw cycle followed by sonication as described above. The resultant membrane preparation was used for binding assays.
(§2) […] The membranes with bound ATP were sedimented by centrifugation at 5000 g for 5 min, and washed once with binding buffer. Membrane pellets were then mixed with 5 ml scintillation cocktail and counted.

[2] = system: sham transformed E. coli membranes; experiment: Saturation binding of [32P]ATP to E. coli membranes, sham transformed (vector only) cells; conditions: 25 μg membrane protein, 2 hr room temperature
Method: as §1, §2

GST-huANT3 = biological target: T2, GST-huANT3 (Homo sapiens, UniProt P12236); experiment: ATP binding to agarose-glutathione beads incubated with solubilized bacterial lysate
T2 construct: Gly-Ser-Pro-Gly-Ile-Leu-Met, where “Met” indicates the amino acid encoded by the translation initiation codon of huANT3; made in house; host or cells: E. coli (solubilized lysate, captured on agarose-glutathione beads)
T2 sequence (P12236 1-298): T1 sequence (P12236 1-298)
Method: Agarose-glutathione beads were incubated with solubilized (using Dnase, Rnase and 0.1% Triton X-100, see Example 1, section D) bacterial lysate (see Example 2), and substituted for the E. coli membranes in binding assays. Best results (i.e., more specific binding) were seen when the beads were preincubated with bovine serum albumin (BSA, 0.1%) Specific ATP binding (1,070 cpm) was also observed in this experiment (compare to nonspecific binding of 279 cpm in the presence of 10 mM non-radiolabeled ATP).

Sf9/huANT3 mitochondria = biological target: T3, Sf9/huANT3 mitochondria (Homo sapiens, UniProt P12236); experiment: Homologous competition of [32P]ATP binding to Sf9/huANT3 mitochondria; conditions: 25 μg mitochondrial protein per assay; FIG. 7
T3 construct: expressed in transfected cells; host or cells: Spodoptera frugiperda Sf9 cells infected with recombinant baculovirus; isolated mitochondria
T3 sequence (P12236 1-298): T1 sequence (P12236 1-298)
Method: To estimate maximal binding and the extent of overexpression of the huANT3, 25 μg of membrane protein was incubated with varying amounts of [^32P]ATP (1-500 μM) in binding buffer (120 mM KCl, 10 mM Tris, 1 mM EDTA, pH 7.4) for 2 hr at room temperature. The membranes with bound ATP were sedimented by centrifugation at 5000 g for 5 min, and washed once with binding buffer. Membrane pellets were then mixed with 5 ml scintillation cocktail and counted.
Sf9 cells expressing huANT3 were grown in spinner flasks. The cells were harvested by centrifugation at 2,000 g for 5 min. The cell pellet was resuspended in MSB and subjected to 3 freeze-thaw cycles. Cell membranes and debris were removed by centrifugation at 600 g for 5 min; mitochondria were collected by centrifuging the supernatant at 20,000 g for 15 min. The mitochondrial pellets were suspended in MSB, and used for binding assays as described above. Homologous competition of [^32P]ATP binding was performed using 25 μg mitochondrial protein per assay.

[3] = Binding of [32P]ATP to Ni-agarose bead material from control (uninfected) Sf9 cells; conditions: 2 hr
Method: (§3) His-tagged huANT3 protein was purified from baculovirus-infected Sf9 solubilized cell lysates using Ni-agarose magnetic beads; Sf9 cells that had not been infected were used as negative controls. The beads were incubated with [^32P]ATP (1 or 100 μM) for 2 hr. The beads were washed and then counted to determine the amount of bound ATP. […] Binding saturation had essentially been achieved with 1 μM ATP.

His-tagged huANT3 [4] = biological target: T4, His-tagged huANT3 (Homo sapiens, UniProt P12236); experiment: Binding of [32P]ATP to purified His-tagged huANT3 on Ni-agarose magnetic beads; set-up: made in house; host or cells: baculovirus-infected Sf9 cells; conditions: for cpm bound by: huANT3-Producing Cells: 2 hr
T4 sequence (P12236 1-298): T1 sequence (P12236 1-298)
Method: as §3

[5] = biological target: T5, bovine mitochondria (ANT) (Bos taurus, UniProt P02722); experiment: 125I-compound 24 competition binding (Tube Assay), beef heart mitochondria; conditions: for competitive inhibition of 125I-compound 24 binding (in words): FIGS. 11, 13, 16
T5 construct: from tissue; host or cells: bovine heart mitochondria
T5 sequence (P02722 2-298 limits assumed): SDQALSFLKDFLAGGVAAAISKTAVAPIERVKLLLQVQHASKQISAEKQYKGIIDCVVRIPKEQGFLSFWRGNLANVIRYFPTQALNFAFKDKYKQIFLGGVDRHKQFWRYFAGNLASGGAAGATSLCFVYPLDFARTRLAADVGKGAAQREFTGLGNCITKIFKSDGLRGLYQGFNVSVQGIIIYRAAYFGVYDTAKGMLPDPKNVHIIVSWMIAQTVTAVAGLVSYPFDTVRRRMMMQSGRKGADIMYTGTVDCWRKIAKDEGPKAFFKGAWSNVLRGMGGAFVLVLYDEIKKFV
Method: Bovine mitochondria were prepared as follows: Essentially all of the fat and cholesterol […] was removed from two bovine hearts which were then cut into 1-inch cubes. The cubes were ground in a meat grinder using the fine setting. Three hundred (300) […] portions of the ground heart were weighed out and, to each was added 400 ml of Isolation Buffer (IB; 250 mM sucrose, 1 mM sodium succinate, 0.2 mM K^+EDTA, 10 mM Tris-base, pH 7.8). (All buffers were filter sterilized, and column buffers were degassed, and, unless otherwise noted, all steps were carried out at 0 to 4° C. on ice or in pre-cooled rotors and centrifuges.) The preparations were mixed in a blender two times for 15 seconds on high setting and, in between and after blends, the pH was adjusted to 7.8 with 2M Tris-base. The homogenate was centrifuged for 20 minutes at 1,200×g, and the supernatant was poured through two layers of cheese cloth and adjusted to pH 7.8 with 2M Tris-base. The supernatant was then centrifuged for 30 minutes at […]. The supernatant was decanted, and the buff-colored outer pellet was dislodged with about 10 ml of IB and discarded. The brown inner pellet (heavy mitochondria) was resuspended in IB (about 10 ml per pellet). The pellets were homogenized in a glass-teflon homogenizer (2 passes at high drill speed). Samples were combined and centrifuged for 30 minutes at 11,000×g. The supernatant was decanted, and the pellets were resuspended in 60 ml of IB per 900 gm of ground heart. This centrifugation step was repeated and the pellets were finally resuspended in IB (60 ml per 900 gm of ground heart). One kilogram of beef heart typically yields about one (1) gram of mitochondria
(§4) The mitochondrial preparations were divided into aliquots (typically, 50μl for T. ni mitochondria or 20 μl for bovine mitochondria) and then either used directly in assays or flash frozen and stored at −80° C. The total protein content in the mitochondrial preparations was determined using the enhanced protocol (30 minutes at 60° C.; see http://www.ruf.rice.edu/˜bioslabs/methods/protein/BCA.html) of the bicinchoninic acid (BCA) assay (available in kit form from Pierce, Rockford, Ill.).
In the “Tube Assay,” mitochondria (from about 1 to 10 μg of total protein) were resuspended in 100 μl of Tris-KCl buffer with 0.1% BSA, pH 7.4. ^125I-labeled compound 24 (Example 11) was added to a final concentration of 0.5 nM. When used, competitors were added at these concentration ranges: unlabeled atractyloside or compound 24 final concentration from 5 nM to 10 μM; unlabeled ADP (a lower affinity competitor) was added at a final concentration of 500 nM to 1 mM.
The reaction mixes were incubated on ice for 60 minutes and then pelleted by centrifugation (approximately 16,000×g) for 11 minutes at 4° C.
Unbound ^125I-compound 24 was removed by aspiration. The pellets were contact-washed with Tris-KCl buffer, pH 7.4, and recentrifuged. The resultant pellets were aspirated and the radioactivity (dpm) in each was determined by gamma counting.

His-tagged huANT3 [6] = biological target: T4, His-tagged huANT3; experiment: 125I-compound 24 competition binding to recombinant His-tagged huANT3 immobilized on Ni beads; set-up: made in house; host or cells: baculovirus-infected Trichoplusia ni cells; mitochondria solubilized and captured on Ni-agarose beads (Qiagen); conditions: His-tagged huANT3 on Ni-agarose beads, 1 hour at 4° C.; FIG. 19
Method: Competitive binding assays were also performed using recombinant His-tagged huANT3 (see Example 3) immobilized on Ni beads (FIG. 19) instead of mitochondria. To prepare the bead-immobilized huANT3, mitochondria from T. ni cells infected with a baculovirus expressing huANT3 (see Example 3) were solubilized with 0.5% O-glucopyranoside in the presence of 0.5 nM ^125I-compound 24 Ni-agarose beads (Qiagen, Hilden, Germany), and various concentrations of ATR or BKA as unlabeled competitors. After 1 hour at 4° C., the beads were washed and radioactivity that remained associated with the beads was counted.

[7] = biological target: T6, T. ni/huANT3 mitochondria (Homo sapiens, UniProt P12236); experiment: 125I-compound 24 competition binding (Tube Assay), mitochondria from T. ni cells expressing huANT3; conditions: mitochondria from T. ni cells expressing huANT3; FIGS. 12, 14, 15
T6 construct: expressed in transfected cells; host or cells: Trichoplusia ni cells infected with recombinant baculovirus (cells prepared by PharMingen); isolated mitochondria
T6 sequence (P12236 1-298): T1 sequence (P12236 1-298)
Method: Atractyloside analogs (Example 6; Table 1; see also Examples 7-9) were also used in pseudo-homologous competition binding assays using T. ni/huANT3 mitochondria or bovine mitochondria. Mitochondria from noninfected T. ni cells, or T. ni cells infected with a baculovirus expressing huANT3 (see Example 3) were prepared as follows: […] cells were prepared by a subcontractor (PharMingen, San Diego, Calif.) as portions of about 250 mg of cells per tube. Each portion was suspended in 1 ml of MSB with protease inhibitors (leupeptin, final concentration 10 ug/ml; pepstatin, final concentration 10 ug/ml; aprotinin, final concentration, 2 ug/ml; phenylmethylsulfonyl fluoride, [PMSF], final concentration, 100 μM; all from Sigma Chemical Co., St. Louis, Mo.). The resuspended cell suspensions were frozen and thawed twice, then homogenized using a rotating teflon-coated probe and a close-fitting glass container (10 passes). The cellular homogenate was centrifuged (3,700 rpm, approximately 1,500×g) at 4° C. for 5 minutes; this supernatant from the first spin was saved. The pellet was washed with about 500 μl of MSB with protease inhibitors, centrifuged (3,800 rpm, approximately 1,600×g) at 4° C. for 5 minutes, and supernatant from this spin was combined with the supernatant from the first spin. […]
as §4, with “Ill.). […]” for “Ill.).”
Unbound ^125I-compound 24 was removed by aspiration. […] The resultant pellets were aspirated and the radioactivity (dpm) in each was determined by gamma counting.

## Nc1ncnc2c1ncn2[C@@H]1O[C@H](COP(=O)(O)OP(=O)(O)OP(=O)(O)O)[C@@H](O)[C@H]1O [ATP, adenosine triphosphate]
[1]; [ATP] 0.1 uM
  cpm bound by: huANT3-Producing Cells: 191 cpm
[1]; [ATP] 0.5 uM
  cpm bound by: huANT3-Producing Cells: 49 cpm
[1]; [ATP] 1.0 uM
  cpm bound by: huANT3-Producing Cells: 325 cpm
[1]; [ATP] 10 uM
  cpm bound by: huANT3-Producing Cells: 263 cpm
[1]; [ATP] 50 uM
  cpm bound by: huANT3-Producing Cells: 2,727 cpm
[1]; [ATP] 100 uM
  cpm bound by: huANT3-Producing Cells: 5,772 cpm
[1]; [ATP] 500 uM
  cpm bound by: huANT3-Producing Cells: 9,715 cpm
[1]; from saturation binding data of Table 2, read-out: affinity of the ATP binding
  Kd: ~6 µM
[2]; [ATP] 0.1 uM
  cpm bound by: Sham Transformed Cells: 109 cpm
[2]; [ATP] 0.5 uM
  cpm bound by: Sham Transformed Cells: 95 cpm
[2]; [ATP] 1.0 uM
  cpm bound by: Sham Transformed Cells: 147 cpm
[2]; [ATP] 5.0 uM
  cpm bound by: Sham Transformed Cells: 123 cpm
[2]; [ATP] 10 uM
  cpm bound by: Sham Transformed Cells: 214 cpm
[2]; [ATP] 50 uM
  cpm bound by: Sham Transformed Cells: 549 cpm
[2]; [ATP] 100 uM
  cpm bound by: Sham Transformed Cells: 718 cpm
[2]; [ATP] 500 uM
  cpm bound by: Sham Transformed Cells: 2,140 cpm
GST-huANT3; beads preincubated with BSA 0.1%
  Specific ATP binding: 1,070 cpm
GST-huANT3; in the presence of 10 mM non-radiolabeled ATP
  nonspecific binding: 279 cpm
Sf9/huANT3 mitochondria
  Kd: 13 µM
[3]; [ATP] 1.0 uM
  cpm bound by: Control (Uninfected) Cells: 43 cpm
[3]; [ATP] 100 uM
  cpm bound by: Control (Uninfected) Cells: 30 cpm
His-tagged huANT3 [4]
  ATP concentration at which binding saturation had essentially been achieved: 1 µM
His-tagged huANT3 [4]; [ATP] 1.0 uM
  cpm bound by: huANT3-Producing Cells: 149 cpm
His-tagged huANT3 [4]; [ATP] 100 uM
  cpm bound by: huANT3-Producing Cells: 160 cpm

## CC(C)CC(=O)OC1C(OC2CC(C(=O)O)C3CCC45CC(CCC4C3(C)C2)C(C)C5O)OC(CO)C(OS(=O)(=O)O)C1OS(=O)(=O)O (centres unmarked) [compound 5, Dihydroatractyloside]
[5]; 0.5 nM 125I-compound 24, FIG. 18, read-out: IC50, competitive inhibition of 125I-compound 24 binding
  IC50: ~3.3 µM

## CO[C@H](C/C=C\C=C\CC/C=C/C[C@H](C)/C=C/C(=C\C(=O)O)CC(=O)O)/C(C)=C\C=C(/C)C(=O)O [BKA, bongkrekic acid]
[5]
  competitive inhibition of 125I-compound 24 binding (in words): effectively displaced labeled compound 24, albeit with a slightly lower affinity than unlabeled compound 24
His-tagged huANT3 [6]
  competitive inhibition of 125I-compound 24 binding (in words): effectively compete with compound 24

## Nc1ncnc2c1ncn2[C@@H]1O[C@H](COP(=O)(O)OP(=O)(O)O)[C@@H](O)[C@H]1O [ADP, adenosine diphosphate]
[5]
  competitive inhibition of 125I-compound 24 binding (in words): low affinity
[7]
  competitive inhibition of 125I-compound 24 binding (in words): low affinity
